Assay results reported in PMC10999543, “Identification of kinase modulators as host-directed therapeutics against intracellular methicillin-resistant Staphylococcus aureus” (Frontiers in Cellular and Infection Microbiology, 2024).
Where two headings read alike, the source gives them in different places.

Experiments:
[1] = system: HeLa cells; assay: Compound screen by flow cytometry: HeLa cell count as surrogate readout of cell viability (z-scoreHeLa); format: cell-based, human
Method: (§1) The cells were resuspended in cell culture medium without antibiotics, seeded with 10,000 cells/well into Costar flat-bottom 96-well plates (Corning, Amsterdam, the Netherlands), and were incubated overnight at 37°C/5% CO2. The next day, the bacteria were centrifuged at ≥1800 g for 15 min and resuspended in cold PBS + 5 mM ethylenediaminetetraacetic acid (EDTA). The number of CFUs present in the bacterial suspension was estimated from the optical density at 600 nm (OD600) by assuming 8x10^8 CFUs to be present in a bacterial suspension with OD600 = 1, based on prior titrations. The bacterial suspension was diluted in cell culture medium without antibiotics and added to the cells. Accuracy of the multiplicity of infection (MOI) was validated by plating serial dilutions of the MRSA inoculums on Difco TS agar plates (BD Biosciences). The calculated mean MOI throughout all experiments was 6.8 ± 4.6 (mean ± SD). Infected cells were centrifuged for 3 min at 150 g and incubated for 1 hour at 37°C/5% CO2. Next, the cells were incubated with fresh cell culture medium supplemented with 30 µg/ml gentamicin sulphate (Lonza BioWhittaker, Basel, Switzerland) for 15 min at 37°C/5% CO2 to kill residual extracellular bacteria. Infected cells were incubated overnight at 37°C/5% CO2 in cell culture medium in the presence of kinase inhibitors and 5 µg/ml gentamicin sulphate-containing medium to prevent the growth of extracellular bacteria. The solvent of the compounds, DMSO, was used at equal % v/v as a negative control. For the screen, each compound was tested in triplicate, on separate cell culture plates, resulting in triplicate values for each kinase inhibitor.
(§2) HeLa cells were harvested by trypsinization and fixed with 1% paraformaldehyde. Samples were measured on a FACSLyric with HTS extension (BD Biosciences). Flow cytometry data were analysed using FlowJo version 10 (TreeStar, Ashland, OR, USA). HeLa cells positive for GFP were gated to calculate the percentage of MRSA-infected cells. The cell count was used as surrogate readout of cell viability.
To minimize the possibility that the presence of extreme values on a plate affected the z-scores, raw values that deviated two-fold from the negative controls were excluded when calculating plate means and standard deviations as used in the aforementioned formula. Compounds were considered a “hit” when z-scoreMRSA+ ≤ -2 and z-scoreHeLa ≥ -3 for cell count. In cases where compounds were screened twice, the average values were used to select hit compounds.

[2] = system: intracellular MRSA; format: cell-based, Staphylococcus aureus; details: for z-scoreMRSA+ mean: mean of 3 replicates; for z-scoreMRSA+ rep 1 / %GFP+ rep 1: replicate 1; for z-scoreMRSA+ rep 2 / %GFP+ rep 2: replicate 2; for z-scoreMRSA+ rep 3 / %GFP+ rep 3: replicate 3
Method: as §1, §2
To identify potential “hit” compounds, the flow cytometry data were used to calculate standard z-scores using z = (x-μ)/σ – zneg, where x is total event count or the percent of GFP-positive cells from a single well, μ is the mean from wells of the plate, σ is the standard deviation of the plate and zneg is the mean z-score of the negative control of the plate (i.e., DMSO) ([Korbee et al., 2018]). To minimize the possibility that the presence of extreme values on a plate affected the z-scores, raw values that deviated two-fold from the negative controls were excluded when calculating plate means and standard deviations as used in the aforementioned formula. Compounds were considered a “hit” when z-scoreMRSA+ ≤ -2 and z-scoreHeLa ≥ -3 for cell count. In cases where compounds were screened twice, the average values were used to select hit compounds.

[3] = PKIS compound screen, Yes/No call
[4] = PKIS compound screen, mean of 3 replicates
[5] = PKIS compound screen, replicate 1
[6] = PKIS compound screen, replicate 2
[7] = PKIS compound screen, replicate 3
[8] = PKIS compounds raw data, replicate 1, HeLa cell count
[9] = PKIS compounds raw data, replicate 2, HeLa cell count
[10] = PKIS compounds raw data, replicate 3, HeLa cell count
[11] = PKIS compound screen, Yes/No call (effect without cell death)
[12] = PKIS compounds raw data, MRSA-infected HeLa cells
[13] = compound screen, HeLa cell count, mean of 3 replicates
[14] = compound screen, HeLa cell count, replicate 1
[15] = compound screen, HeLa cell count, replicate 2
[16] = compound screen, HeLa cell count, replicate 3
[17] = Yes/No: effect without cell death
[18] = compound screen, MRSA-infected HeLa cells
[19] = PKIS compound screen raw data, MRSA-infected HeLa cells
[20] = PKIS compound screen, MRSA-infected HeLa cells
[21] = PKIS compound screen, Yes/No call on z-scoreMRSA+
[22] = PKIS compound screen raw data, HeLa cell count, replicate 1
[23] = PKIS compound screen raw data, HeLa cell count, replicate 2
[24] = PKIS compound screen raw data, HeLa cell count, replicate 3
[25] = PKIS compound screen, HeLa cell count, mean of 3 replicates
[26] = PKIS compound screen, HeLa cell count, replicate 1
[27] = PKIS compound screen, HeLa cell count, replicate 2
[28] = PKIS compound screen, HeLa cell count, replicate 3
[29] = PKIS compound screen, Yes/No call on z-scoreHeLa

Structure (SMILES) | cell count rep 1 [1, 8] | cell count rep 2 [1, 9] | cell count rep 3 [1, 10] | hit [2, 11] | %GFP+ rep 1 [2, 12] [%] | %GFP+ rep 2 [2, 12] [%] | %GFP+ rep 3 [2, 12] [%] | %GFP+ rep 1 [2, 19] [%] | %GFP+ rep 2 [2, 19] [%] | %GFP+ rep 3 [2, 19] [%] | z-scoreMRSA+ mean [2, 20] | z-scoreMRSA+ rep 1 [2, 20] | z-scoreMRSA+ rep 2 [2, 20] | z-scoreMRSA+ rep 3 [2, 20] | effect [2, 21] | other results
COc1ccc2ncnc(Nc3ccc(OCc4ccccc4)cc3)c2c1 [GI261520A] | 6115 | 6030 | 12782 | No | 11.8 | 13.4 | 11.4 |  |  |  |  |  |  |  |  | cell death [1, 3]: No; z-scoreHeLa mean [1, 4]: 1.78; z-scoreHeLa rep 1 [1, 5]: 1.21; z-scoreHeLa rep 2 [1, 6]: 1.33; z-scoreHeLa rep 3 [1, 7]: 2.78; effect [2, 3]: No; z-scoreMRSA+ mean ([2]; PKIS compound screen): -0.60; z-scoreMRSA+ rep 1 ([2]; PKIS compound screen): -0.44; z-scoreMRSA+ rep 2 ([2]; PKIS compound screen): -0.0319; z-scoreMRSA+ rep 3 ([2]; PKIS compound screen): -1.33
Oc1ccc2ncnc(Nc3ccc(OCc4ccccc4)cc3)c2c1 [GI262866A] | 5744 | 4904 | 6919 |  | 22.5 | 22.3 | 21.5 |  |  |  |  |  |  |  |  | cell death ([1]; Yes/No call from z-scoreHeLa): No; z-scoreHeLa mean [1, 13]: 0.84; z-scoreHeLa rep 1 [1, 14]: 1.00; z-scoreHeLa rep 2 [1, 15]: 0.46; z-scoreHeLa rep 3 [1, 16]: 1.06; effect ([2]; Yes/No call from z-scoreMRSA+): No; hit [2, 17]: No; z-scoreMRSA+ mean [2, 18]: -0.31; z-scoreMRSA+ rep 1 [2, 18]: -0.65; z-scoreMRSA+ rep 2 [2, 18]: -0.0758; z-scoreMRSA+ rep 3 [2, 18]: -0.21
c1ccc(Cc2nc3ccc(Nc4ncnc5ccccc45)cc3[nH]2)cc1 [GR269666A] | 4886 | 4795 | 7830 | No | 13.4 | 15.8 | 13.5 |  |  |  |  |  |  |  |  | cell death [1, 3]: No; z-scoreHeLa mean [1, 4]: 0.30; z-scoreHeLa rep 1 [1, 5]: 0.10; z-scoreHeLa rep 2 [1, 6]: 0.40; z-scoreHeLa rep 3 [1, 7]: 0.42; effect [2, 3]: No; z-scoreMRSA+ mean ([2]; PKIS compound screen): 0.046; z-scoreMRSA+ rep 1 ([2]; PKIS compound screen): 0.07; z-scoreMRSA+ rep 2 ([2]; PKIS compound screen): 0.77; z-scoreMRSA+ rep 3 ([2]; PKIS compound screen): -0.71
Cc1cnc(N)c(/C=C/c2cncc(C(=O)NCCc3ccc(Cl)cc3Cl)c2)c1 [GSK190937A] |  |  |  | No |  |  |  | 17.3 | 19.0 | 19.5 | -0.04 | -0.18 | 0.14 | -0.09 | No | 
CCNC(=O)O[C@H]1CN[C@H](C#Cc2cc3ncnc(Nc4ccc(OCc5cccc(F)c5)c(Cl)c4)c3s2)C1 [GSK192082A] | 3041 | 2947 | 5819 |  | 6.9 | 7.5 | 8.8 |  |  |  |  |  |  |  |  | cell death ([1]; Yes/No call from z-scoreHeLa): No; z-scoreHeLa mean [1, 13]: -1.04; z-scoreHeLa rep 1 [1, 14]: -1.57; z-scoreHeLa rep 2 [1, 15]: -1.00; z-scoreHeLa rep 3 [1, 16]: -0.55; effect ([2]; Yes/No call from z-scoreMRSA+): Yes; hit [2, 17]: Yes; z-scoreMRSA+ mean [2, 18]: -2.04; z-scoreMRSA+ rep 1 [2, 18]: -2.01; z-scoreMRSA+ rep 2 [2, 18]: -2.02; z-scoreMRSA+ rep 3 [2, 18]: -2.09
O=C(O[C@H]1CN[C@H](C#Cc2cc3ncnc(Nc4ccc5c(cnn5Cc5ccccc5)c4)c3s2)C1)N1CCOCC1 [GSK200398A] |  |  |  | No |  |  |  | 12.7 | 13.5 | 14.0 | -1.64 | -1.64 | -1.51 | -1.76 | No | cell count rep 1 [1, 22]: 22424; cell count rep 2 [1, 23]: 29797; cell count rep 3 [1, 24]: 30147; z-scoreHeLa mean [1, 25]: -0.74; z-scoreHeLa rep 1 [1, 26]: 0.35; z-scoreHeLa rep 2 [1, 27]: -0.93; z-scoreHeLa rep 3 [1, 28]: -1.65; cell death [1, 29]: No
COc1cc2c(Nc3cccc(NC(=O)c4ccccc4)c3)ncnc2cc1OCCCN1CCOCC1 [GSK223810A] |  |  |  | No |  |  |  | 19.8 | 21.2 | 22.6 | 0.38 | 0.27 | 0.49 | 0.37 | No | cell count rep 1 [1, 22]: 28720; cell count rep 2 [1, 23]: 24881; cell count rep 3 [1, 24]: 20680; z-scoreHeLa mean [1, 25]: 0.00813; z-scoreHeLa rep 1 [1, 26]: -0.25; z-scoreHeLa rep 2 [1, 27]: -0.07; z-scoreHeLa rep 3 [1, 28]: 0.34; cell death [1, 29]: No
Fc1ccc(-c2ncn(C3CCNCC3)c2-c2ccnc(Oc3cccc(F)c3)n2)cc1 [SB-251505] |  |  |  | No |  |  |  | 15.0 | 15.3 | 16.6 | -0.95 | -0.91 | -0.97 | -0.97 | No | 
Fc1ccc(-c2ncn(C3CCNCC3)c2-c2ccnc(Oc3cccc(C(F)(F)F)c3)n2)cc1 [SB-253226] |  |  |  | No |  |  |  | 14.0 | 15.8 | 16.0 | -1.07 | -1.22 | -0.82 | -1.15 | No | 
Fc1ccc(-c2ncn(C3CCNCC3)c2-c2ccnc(Oc3ccc(Cl)cc3)n2)cc1 [SB-278539] |  |  |  | No |  |  |  | 13.4 | 15.5 | 16.2 | -1.14 | -1.41 | -0.91 | -1.09 | No | 
Cc1cc(C)cc(Oc2nccc(-c3c(-c4ccc(F)cc4)ncn3C3CCNCC3)n2)c1 [SB-284851-BT] |  |  |  |  |  |  |  |  |  |  |  |  |  |  |  | cell count rep 1 [1]: 26737; cell count rep 2 [1]: 41520; cell count rep 3 [1]: 48762; cell death [1]: No; z-scoreHeLa mean [1]: 1.19; z-scoreHeLa rep 1 [1]: 1.00; z-scoreHeLa rep 2 [1]: 1.26; z-scoreHeLa rep 3 [1]: 1.31
Cc1ccc(C)c(Oc2nccc(-c3c(-c4ccc(F)cc4)ncn3C3CCNCC3)n2)c1 [SB-284852-BT] |  |  |  |  |  |  |  |  |  |  |  |  |  |  |  | cell count rep 1 [1]: 26025; cell count rep 2 [1]: 26957; cell count rep 3 [1]: 22542; cell death [1]: No; z-scoreHeLa mean [1]: 0.10; z-scoreHeLa rep 1 [1]: -0.71; z-scoreHeLa rep 2 [1]: 0.29; z-scoreHeLa rep 3 [1]: 0.70
COc1ccccc1C1=C(Nc2ccc(O)c(Cl)c2)C(=O)NC1=O [SB-381904] |  |  |  | No |  |  |  | 16.9 | 18.3 | 18.4 | -0.26 | -0.30 | -0.07 | -0.42 | No | 
